According to US6503940B2, “Prodrugs for antimicrobial amidines” (The University of North Carolina at Chapel Hill, priority 1999, dated 2003):

Assays:
[1] = tested on: Pneumocystis carinii; assay: Anti-Pneumocystis carinii pneumonia activity in immunosuppressed rat model; format: in vivo
Description: (§1) In the examples which follow, melting points were recorded using a Thomas-Hoover (Uni-Melt) capillary melting point apparatus and were uncorrected. TLC analysis was carried out on silica gel 60 F254 pre-coated aluminum sheets (0.20 mm layer thickness) (E. Merck of Whitehouse Station, N.J.) and detected under UV light. IR spectra were recorded using Perkin-Elmer Model 337 spectrometer sold by Perkin-Elmer of Norwalk, Conn. ^1H and ^13C NMR spectra were recorded employing a Varian GX400 or a Varian Unityplus 300 spectrometer (both sold by Varian of Palo Alto, Calif.) and chemical shifts (δ) are in ppm relative to TMS as internal standard. Mass Spectra were recorded on a VG Analytical 70-SE spectrometer (Georgia Institute of Technology, Atlanta, Ga.). IR spectra were recorded using a Perkin-Elmer 2000 instrument. […] All chloroformates were purchased from Aldrich Chemical Co. of St. Louis, Mo. Other chemicals and solvents were purchased from either Aldrich or Fischer Scientific of Houston, Tex. […] See Baijic, M., et al., Heterocycl. Commun., 1996, 2, pp. 135-140; Das, B. P., J. Med. Chem. 1977, 20, pp. 531-536; and Boykin, D. W., et al., Bioorg. Med. Chem Lett., 1996, 6, pp. 3017-3020. Anti-Pneumocystis carinii pneumonia activity screening was carried out according to published methods. See Jones, S. K. et al., Antimicrob. Agents Chemother., 1990, 34, pp. 1026-1030; Hall, J. E., et al., Antimicrob. Agents Chemother., 1998, 42, pp. 666-674; and Tidwell, R. R., et al., J. Med. Chem., 1990, 33, pp. 1252-1257. Compounds were routinely tested orally at 33 μmol/kg/day and intravenously at 22 μmol/kg/day. Saline- and pentamidine treated groups of rats were included as negative and positive controls, respectively.

[2] = Toxicity observed in rats of the anti-PCP screening; settings: rat
Description: as §1

[3] = tested on: Pneumocystis carinii; assay: Anti-Pneumocystis carinii pneumonia activity in immunosuppressed rat model; format: in vivo; remark: listed apart in the source

Compound	Cysts/g of lung (% of control) ([1]; iv @ 22.0 μmol/kg/day)	Toxicity ([2]; Oral @ 33.0 μmol/kg/day)	Toxicity ([2]; iv @ 22.0 μmol/kg/day)	Cysts/g of lung (% of control) ([1]; Oral @ 33.0 μmol/kg/day)	other results
N=C(N)c1ccc(OCCCCCOc2ccc(C(=N)N)cc2)cc1 [Pentamidine, 1,5-bis(4-amidinophenoxy)pentane, reference compound]	3.06 ± 0.90 % of control				
Cc1oc(=O)oc1COC(=O)N=C(N)c1ccc(-c2ccc(-c3ccc(C(N)=NC(=O)OCc4oc(=O)oc4C)cc3)o2)cc1 [Compound 6, 2,5-bis{4-[N-(5-methyl-2-oxo-1,3-dioxol-4-ene-1-yl)methoxycarbonyl]amidinophenyl}furan]	0.02 ± 0.01 % of control	0	0	18.73 ± 11.87 % of control	
NC(=NC(=O)Oc1ccc(F)cc1)c1ccc(-c2ccc(-c3ccc(C(N)=NC(=O)Oc4ccc(F)cc4)cc3)o2)cc1 [Compound 8, 2,5-bis[4-(N-(4-fluoro)phenoxycarbonyl)amidinophenyl]furan]	0.02 ± 0.01 % of control	0	0	2.21 ± 0.33 % of control	
CCOC(=O)ON=C(N)c1ccc(-c2ccc(-c3ccc(C(N)=NOC(=O)OCC)cc3)o2)cc1 [Compound 11, 2,5-bis[4(N-ethoxycarbonyloxy)amidinophenyl]furan]		0		96.90 ± 48.48 % of control	Cysts/g of lung (% of control) ([3]; iv @ 34.7 μmol/kg/day): 1.66 ± 0.58 % of control; Toxicity ([2]; iv @ 34.7 μmol/kg/day): 0
CC(=O)OC(C)OC(=O)NC(=N)c1ccc(-c2ccc(-c3ccc(C(=N)NC(=O)OC(C)OC(C)=O)cc3)o2)cc1 (stereo not drawn) [Compound 10, 2,5-bis[4(1-Acetoxyethoxycarbonyl)amidinophenyl]furan]		0		57.16 ± 10.19 % of control	Cysts/g of lung (% of control) ([3]; iv @ 11.0 μmol/kg/day): 1.21 ± 1.02 % of control
NC(=NC(=O)Oc1ccccc1)c1ccc(-c2ccc(-c3ccc(C(N)=NC(=O)Oc4ccccc4)cc3)o2)cc1 [Compound 7, 2,5-Bis[4-(N-phenoxycarbonyl)amidinophenyl]furan]	3.61 ± 1.80 % of control	0	0	5.70 ± 5.15 % of control	
[H]/N=C(\N)c1ccc(-c2ccc(-c3ccc(/C(N)=N/[H])cc3)o2)cc1 [Compound 1, 2,5-Bis(4-amidinophenyl)furan, reference compound]					Cysts/g of lung (% of control) ([3]; Oral @ 39.8 μmol/kg/day): 44.52 ± 13.30 % of control; Cysts/g of lung (% of control) ([3]; iv @ 13.3 μmol/kg/day): 0.83 ± 0.36 % of control; Toxicity ([2]; Oral @ 39.8 μmol/kg/day): 0; Toxicity ([2]; iv @ 13.3 μmol/kg/day): 0
CCSC(=O)N=C(N)c1ccc(-c2ccc(-c3ccc(C(N)=NC(=O)SCC)cc3)o2)cc1 [Compound 4, 2,5-bis[4-(N-thioethylcarbonyl)amidinophenyl]furan]	83.01 ± 43.65 % of control	0	0	19.52 ± 14.22 % of control	
NC(=NC(=O)OCc1ccccc1)c1ccc(-c2ccc(-c3ccc(C(N)=NC(=O)OCc4ccccc4)cc3)o2)cc1 [Compound 5, 2,5-bis[4-(N-benzyloxycarbonyl)amidinophenyl]furan]				18.09 ± 9.16 % of control	Cysts/g of lung (% of control) ([3]; iv @ 11.0 μmol/kg/day): 0.03 ± 0.02 % of control
COc1ccc(OC(=O)N=C(N)c2ccc(-c3ccc(-c4ccc(C(N)=NC(=O)Oc5ccc(OC)cc5)cc4)o3)cc2)cc1 [Compound 9, 2,5-bis[4-(N-(4-methoxy)phenoxycarbonyl)amidinophenyl]furan]	0.02 ± 0.01 % of control	0	0	2.10 ± 2.08 % of control	
COC(=O)NC(=N)c1ccc(-c2ccc(-c3ccc(C(=N)NC(=O)OC)cc3)o2)cc1 [Compound 2, 2,5-Bis[4-(N-methoxycarbonyl)amidinophenyl]furan]	6.91 ± 6.01 % of control	0	0	49.68 ± 20.50 % of control	
2,5-bis[4-(N-2,2,2-trichloroethoxycarbonyl)amidinophenyl]furan [Compound 3]	1.85 ± 1.79 % of control	0	0	8.59 ± 9.14 % of control	
